# Several values for one entry are separate records, joined by “and”; a condition that tells them apart may be missing. Equal values may be shown once. Read-outs that look alike come from different tables or passages of the source.
# Experiments:
# [1] = tested on: THP-1 Lucia ISG cells (interferon pathway); experiment: Potency test of purified dimers on THP-1 Lucia ISG reporter cells; assay type: cell-based, human; conditions: for Raw readings: replicates 1-3; for fold induction at 0.000508053 µM: Concentration 0.508053 nM; for fold induction at 0.00152416 µM: Concentration 1.52416 nM; for fold induction at 0.00457247 µM: Concentration 4.57247 nM; for fold induction at 0.37037 µM: Concentration 370.37 nM; for fold induction at 1.11111 µM: Concentration 1111.11 nM; for fold induction at 3.33333 µM: Concentration 3333.33 nM; for EC50: three biological replicates, mean ± s.d., read-out: EC50 THP-1
# Method: Cells were pelleted (150g, 10 min) and resuspended in the growth medium (40% conditioned) at a density of 1 × 10^6 cells ml^−1. The cell suspension was dispensed (50 µl each well) into a lidded white 96-well plate (BrandTech 781665). Test compounds or DMSO control were diluted in the growth medium and sterilized by filtering through 0.22-µm polyethersulfone (PES) membranes (Merck SLGP033RS). […] Upon cooling down to room temperature, 50 µl of reconstituted luciferase substrate (InvivoGen QUANTI-Luc) was added to each well via the injector of the plate reader (Molecular Devices SpectraMax i3x), and the luminescence output was recorded (4 s delay, 0.1 s integration). Raw signals were divided by the averaged signal of the DMSO-treated control wells and reported in relative luminescence unit (RLU). The dose–response curve of each replicate was fitted individually using the standard 4PL model (GraphPad Prism). The EC50 value of each compound was averaged from three independent experiments and reported as mean ± s.e.m.
# [2] = biological target: T1, wild-type human STING LBD (hSTINGwt 138-379) (Homo sapiens, UniProt Q86WV6, H232R); experiment: Isothermal titration calorimetry (ITC), reverse titration; assay type: binding
# T1 construct: SUMO (N, cleaved yes); made in house; host or cells: Escherichia coli BL21 (DE3)
# Method: Escherichia coli BL21 (DE3) (Thermo Scientific EC0114) was transformed with a pET28a plasmid (Genscript) harbouring the codon-optimized sequence of SUMO-hSTINGwt (aa138-379). Transformed BL21 cells were inoculated into LB medium (50 µg ml^−1 kanamycin) and incubated at 180 rpm, 37 °C overnight. The overnight culture was then diluted (1:100 dilution) in 2× YT medium (50 µg ml^−1 kanamycin) and incubated at 180 rpm, 37 °C until optical density at 600 nm (OD600) reached 0.6 (approximately 3 h). The bacterial culture was then cooled to 16 °C, induced with 0.5 mM isopropyl 1-thio-D-galactopyranoside and incubated overnight at 180 rpm, 16 °C. The bacterial cells were pelleted at 4,000g for 30 min, resuspended in 20 ml of lysis buffer (25 mM HEPES pH 7.5, 150 mM NaCl, 20 mM imidazole and 2 mM TCEP supplied with 2 tablets of cOmplete mini EDTA-free protease inhibitors) and disrupted by sonication on ice. The total lysate was clarified by centrifugation at 22,000g for 30 min. The supernatant was collected and filtered through a 0.45-µm filter (Millipore SLHAR33SS). The clarified lysate was then incubated on a roller with 10 ml bed volume of Ni-NTA resin (Thermo Scientific 88223) at 4 °C for 1 h. The Ni-NTA resin was then packed in a column, flushed with 20 ml of wash buffer (25 mM HEPES pH 7.5, 150 mM NaCl and 20 mM imidazole) and eluted with 40 ml of elution buffer (25 mM HEPES pH 8.0, 150 mM NaCl and 250 mM imidazole). The eluted protein was concentrated to approximately 5 ml (Millipore Amicon 10 kDa molecular weight cut-off (MWCO)) and buffer-exchanged into storage buffer (25 mM HEPES pH 7.5 and 150 mM NaCl). TCEP was then added to a final concentration of 2 mM, and 250 units of SUMO protease (Merck SAE0067) were added. The cleavage reaction mixture was left to stand at 4 °C overnight until LC–MS analysis indicated the completion of the cleavage reaction. The cleavage mixture was incubated with 10 ml bed volume of Ni-NTA resin on a roller at 4 °C for 1 h and packed in a disposable column. The flowthrough was collected, and the resin was further flushed with 20 ml of wash buffer. The eluted fractions were combined, concentrated and further purified by size-exclusion chromatography (Cytiva, Superdex 200 Increase 10/300 GL). The purified protein in storage buffer was concentrated to 330 µM (dimer concentration) as determined by bicinchoninic acid (BCA) assay, aliquoted, flash-frozen in liquid nitrogen and stored at −80 °C for future use.
# The binding constants of purified dimers were measured by ITC (Malvern Panalytical AutoITC200) in a reverse-titration format. Stock DMSO solutions of each dimer were dissolved in titration buffer (25 mM HEPES pH 7.5 and 150 mM NaCl) to a final concentration of 25 µM and added to the titration cell. The syringe was filled with 250 µM of purified STING in a matching buffer. Titration was performed at 25 °C with the following parameters: 750 rpm stirring, 0.2 µl initial injection followed by 2-µl injections of the […] every 120 s. Titration of STING protein into blank buffer was separately performed and subtracted from the raw data before the analysis. The background-subtracted titration curves were fitted with the built-in Origin software using the standard one-site model.
# Extended Data Fig. 2 Isothermal titration calorimetry (ITC) data for binding constant measurements. Purified hSTINGwt138-379 (250 μM of homodimer) was titrated into each dimer (25 μM) dissolved in a matching buffer (25 mM HEPES pH 7.5, 150 mM NaCl) at 25 °C and 750 rpm stirring. Binding constants were reported as the average from duplicate measurements.
# [3] = Homo sapiens, THP1-Lucia ISG, 24 h, three replicates, read-out: Processed reporter response per replicate (reading relative to DMSO)
# [4] = Homo sapiens, THP1-Lucia ISG, 24 h
# [5] = 25 °C, average of duplicate measurements, read-out: Kd hSTINGwt (binding constant, ITC)
# T1 sequence (Q86WV6 138-379 H232R): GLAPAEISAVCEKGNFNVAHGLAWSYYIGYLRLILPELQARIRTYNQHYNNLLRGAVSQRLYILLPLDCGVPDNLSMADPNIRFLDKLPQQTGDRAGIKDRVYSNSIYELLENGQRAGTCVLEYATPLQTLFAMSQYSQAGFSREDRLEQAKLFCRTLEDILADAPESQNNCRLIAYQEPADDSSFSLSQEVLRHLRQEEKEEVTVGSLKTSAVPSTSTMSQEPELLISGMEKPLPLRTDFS
SMILES,Raw readings ([1]; Conc 0.508053 nM),Raw readings ([1]; Conc 1.52416 nM),Raw readings ([1]; Conc 4.57247 nM),Raw readings ([1]; Conc 13.7174 nM),Raw readings ([1]; Conc 41.1523 nM),Raw readings ([1]; Conc 123.457 nM),Raw readings ([1]; Conc 370.37 nM),Raw readings ([1]; Conc 1111.11 nM),Raw readings ([1]; Conc 3333.33 nM),Raw readings ([1]; Conc 10000 nM),"fold induction at 0.000508053 µM [1, 3]","fold induction at 0.00152416 µM [1, 3]","fold induction at 0.00457247 µM [1, 3]","fold induction at 0.37037 µM [1, 3]","fold induction at 1.11111 µM [1, 3]","fold induction at 3.33333 µM [1, 3]","EC50 [1, 4] [nM]","Kd [2, 5] [nM]","Kd ([2]; ITC run _01, read-out: Kd) [nM]","Kd ([2]; ITC run _02, read-out: Kd) [nM]",also measured
COc1cc2sc(C(=O)CCC(=O)O)cc2cc1Sc1cc2cc(C(=O)CCC(=O)O)sc2cc1OC [Compound D1],1353 RLU and 1053 RLU and 1124 RLU,759 RLU and 868 RLU and 713 RLU,1002 RLU and 721 RLU and 729 RLU,1412 RLU and 851 RLU and 1233 RLU,3959 RLU and 4405 RLU and 4421 RLU,44787 RLU and 77696 RLU and 48848 RLU,107911 RLU and 161465 RLU and 94323 RLU,125522 RLU and 220455 RLU and 140381 RLU,142408 RLU and 266422 RLU and 170286 RLU,176790 RLU and 287573 RLU and 159056 RLU,1.85,1.04,1.37,148,172,195,291 ± 22,65,80,50,"fold induction at 0.0137174 µM ([1]; Homo sapiens, THP1-Lucia ISG, 24 h, Concentration 13.7174 nM, three replicates, read-out: Processed reporter response per replicate (reading relative to DMSO)): 1.93; fold induction at 0.0411523 µM ([1]; Homo sapiens, THP1-Lucia ISG, 24 h, Concentration 41.1523 nM, three replicates, read-out: Processed reporter response per replicate (reading relative to DMSO)): 5.41; fold induction at 0.123457 µM ([1]; Homo sapiens, THP1-Lucia ISG, 24 h, Concentration 123.457 nM, three replicates, read-out: Processed reporter response per replicate (reading relative to DMSO)): 61.3; fold induction at 10 µM ([1]; Homo sapiens, THP1-Lucia ISG, 24 h, Concentration 10000 nM, three replicates, read-out: Processed reporter response per replicate (reading relative to DMSO)): 242"
COc1cc2sc(C(=O)CCC(=O)O)cc2cc1CSc1cc2cc(C(=O)CCC(=O)O)sc2cc1OC [Compound D2],658 RLU and 1263 RLU and 1053 RLU,564 RLU and 729 RLU and 601 RLU,1074 RLU and 921 RLU and 1413 RLU,6767 RLU and 16752 RLU and 12692 RLU,51165 RLU and 121226 RLU and 61063 RLU,102439 RLU and 196826 RLU and 100000 RLU,111711 RLU and 237713 RLU and 134702 RLU,126733 RLU and 297637 RLU and 176097 RLU,139803 RLU and 327985 RLU and 173658 RLU,138886 RLU and 307582 RLU and 153848 RLU,0.9,0.771,1.47,153,173,191,74 ± 12,46,79,13,
